Measured values as given in US20150307841A1, “Composition for Promoting Differentiation and Proliferation of Neural Stem Cell and Neural Precursor Cell” (priority 2014, published 2015).

Tested on: newly born neural precursor cells in hippocampal tissue slices
Assay: Immunohistochemical analysis of BrdU and subtype markers 4 weeks after oral administration (Experimental Example 2)
Format: in vivo, rat
Design: Number of BrdU-positive cells and newly born dentate granular cells (DGCs) versus IBO group / Number of cells expressing both NeuN and BrdU versus ibotenic acid-administered group / Cholinergic neurons (total endogenous ChAT-positive cells) at 4 weeks versus 1 week after oral administration: dose or concentration left out as unconfirmed
Description: In order to confirm the survival and differentiation of newly born neural precursor cells 4 weeks after the oral administration of soyasaponin I, it was observed whether the BrdU-expressing cells express a mature neuron marker and cell subtype markers (NeuN, VGluT1, GAD67) simultaneously.
After conducting the 3 behavioral tests, the rats were sacrificed for immunohistochemical analysis. Over 5 animals from each group were used for the immunohistochemical analysis.
Following the same procedure as described in (4) of Experimental Example 2, incubation was performed at 37° C. for 30 minutes in 2 N HCl after permeabilization in 0.5% Triton X-100 for 20 minutes for double staining of BrdU/subtype cell markers ([…], VGluT1, NeuN).
In the immunohistochemical analysis, the number of the cells immnunostained against each antibody was counted from 5 or 6 hippocampal coronal sections. For each staining analysis, every fifth cryosections of the hippocampal region of brain tissues (AP: bregma −4.5 to −4.3 mm) were taken for immunostaining. The number of the immnunostained cells was represented as an average of number of cells in the hippocampal region of one brain slice.
The number of the VGluT1- and GAD-positive cells in the brain slice samples 1 week and 4 weeks after the administration of soyasaponin I was presented per microscopic field (×400-VGluT1, ×800-GAD67) and the number of the ChAT-positive cells was presented per each hippocampal region (10-12 confocal laser microscopic fields). 5-11 animals were used per group. Western blotted membranes were analyzed using the multi-gauge, bio-imaging program on LAS-4000 Mini (Fujifilm Life Science, Stamford, Conn., USA). Densitometeric analysis of the expression ratios of VGluT1/β-actin, GAD65/67/β-actin and ChAT/β-actin was normalized to the vehicle group.

[1] = 4 weeks after oral administration
[2] = soyasaponin I 10 mg/g group (so in the source), 4 weeks after oral administration
[3] = soyasaponin I group (so in the source), 4 weeks after oral administration

**Q.** What does the source list for C[C@@H]1O[C@@H](O[C@H]2[C@H](O[C@H]3[C@H](O[C@H]4CC[C@@]5(C)[C@@H](CC[C@]6(C)[C@@H]5CC=C5[C@@H]7CC(C)(C)C[C@@H](O)[C@]7(C)CC[C@]56C)[C@@]4(C)CO)O[C@H](C(=O)O)[C@@H](O)[C@@H]3O)O[C@H](CO)[C@H](O)[C@@H]2O)[C@H](O)[C@H](O)[C@H]1O [soyasaponin I]?
**A.** Number of BrdU-positive cells in hippocampal tissue slices at 4 weeks versus 1 week after oral administration [1]: reduced to less than half; Ratio of the BrdU-positive cells that express VGluT1, NeuN or GAD67 at the same time [1]: no significant difference; BrdU-positive cells among hippocampal cells expressing GFAP, TH and ChAT (4 weeks after oral administration, any group): barely detected; Number of BrdU-positive cells expressing GAD67 versus IBO group [2]: 2.8 times; Number of BrdU-positive cells expressing VGluT1 versus IBO group [2]: higher; Cholinergic neurons (total endogenous ChAT-positive cells) at 4 weeks versus 1 week after oral administration (soyasaponin I group (so in the source)): maintained at a similar level; Number of BrdU-positive cells and newly born dentate granular cells (DGCs) versus IBO group [3]: approximately 3.5 fold; Number of cells expressing both NeuN and BrdU versus ibotenic acid-administered group [3]: 3 times
